Laboratory results: patent publication US6906061B2, “Pharmaceutical agent containing Rho kinase inhibitor” (Mitsubishi Pharma Corporation, priority 1996, dated 2005)

Columns and labels:
[1] = biological target: T1, Human Platelet Rho Kinase (p160ROCK) (Homo sapiens, UniProt Q13464); test: Rho kinase inhibitory action (inhibition of human platelet Rho kinase (p160ROCK)); type: biochemical; details: histone substrate, 1 μM ATP
T1 construct: Human platelet p160ROCK was isolated by the method of Ishizaki et al; from tissue; host or cells: human platelets
T1 sequence (Q13464 whole entry): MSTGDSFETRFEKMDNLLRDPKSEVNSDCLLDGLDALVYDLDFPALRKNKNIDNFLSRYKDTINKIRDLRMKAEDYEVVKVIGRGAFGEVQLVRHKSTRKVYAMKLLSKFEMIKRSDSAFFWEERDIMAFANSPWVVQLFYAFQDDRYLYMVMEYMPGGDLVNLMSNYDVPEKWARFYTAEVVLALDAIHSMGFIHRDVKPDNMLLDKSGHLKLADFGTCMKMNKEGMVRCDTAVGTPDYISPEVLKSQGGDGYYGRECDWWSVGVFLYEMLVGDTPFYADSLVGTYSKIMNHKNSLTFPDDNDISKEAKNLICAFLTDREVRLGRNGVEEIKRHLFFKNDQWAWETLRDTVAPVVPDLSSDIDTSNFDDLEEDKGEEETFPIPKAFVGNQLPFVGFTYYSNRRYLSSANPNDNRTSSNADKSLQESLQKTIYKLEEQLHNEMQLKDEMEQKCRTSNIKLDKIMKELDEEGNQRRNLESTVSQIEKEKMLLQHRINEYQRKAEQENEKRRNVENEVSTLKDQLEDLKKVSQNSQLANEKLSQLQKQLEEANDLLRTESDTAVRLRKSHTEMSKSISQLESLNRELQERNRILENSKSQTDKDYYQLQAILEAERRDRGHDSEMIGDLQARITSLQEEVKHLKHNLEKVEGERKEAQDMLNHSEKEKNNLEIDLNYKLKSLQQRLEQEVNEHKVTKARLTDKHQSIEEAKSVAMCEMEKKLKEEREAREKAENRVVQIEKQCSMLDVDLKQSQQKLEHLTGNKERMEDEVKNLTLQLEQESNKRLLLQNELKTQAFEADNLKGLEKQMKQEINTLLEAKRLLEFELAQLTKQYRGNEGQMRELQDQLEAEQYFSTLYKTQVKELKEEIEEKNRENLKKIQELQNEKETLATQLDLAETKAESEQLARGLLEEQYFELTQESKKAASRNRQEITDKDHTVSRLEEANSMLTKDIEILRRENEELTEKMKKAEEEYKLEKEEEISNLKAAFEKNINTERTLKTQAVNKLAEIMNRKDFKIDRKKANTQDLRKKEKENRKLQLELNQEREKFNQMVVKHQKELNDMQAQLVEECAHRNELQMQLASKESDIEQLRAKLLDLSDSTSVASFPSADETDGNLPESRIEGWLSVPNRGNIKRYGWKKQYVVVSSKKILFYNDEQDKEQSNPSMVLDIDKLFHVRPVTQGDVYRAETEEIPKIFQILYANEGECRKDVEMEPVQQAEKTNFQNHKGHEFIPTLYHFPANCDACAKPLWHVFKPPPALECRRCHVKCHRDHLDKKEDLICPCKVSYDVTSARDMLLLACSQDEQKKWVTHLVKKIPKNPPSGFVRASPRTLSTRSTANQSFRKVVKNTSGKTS
Description: Rho Kinase Inhibitory Action (Inhibition of Human Platelet Rho Kinase (p160ROCK))
(§1) Kinase assay included the following steps. That is, a reaction mixture (total amount 30 μl) containing 50 mM Hepes-NaOH (pH=7.4), 10 mM MgCl2, 5 mM MnCl2, 2 mM dithiothreitol, 0.02% Brij35, 1 μM [γ-^32P]ATP, 330 μg/ml histone, p160ROCK (2 μl) isolated by the method of Ishizaki et al. and the test compound was incubated at 30° C. for 20 minutes. The solution was mixed with a 1/3 amount of 4× Laemmli sample buffer, boiled for 5 minutes and applied to SDS-PAGE. The gel was stained with Coomassie Brilliant Blue and dried. The band of histone was cut out and assayed for radioactivity.

p160ROCK = biological target: T2, p160ROCK (Homo sapiens, UniProt Q13464); test: Inhibition of p160ROCK (myc-tagged, expressed in COS cells); type: biochemical; details: enzyme expressed in COS cells
T2 construct: made in house; host or cells: COS cells (transient transfection, immunoprecipitated with 9E10 anti-myc antibody on protein G-Sepharose)
T2 sequence (Q13464 whole entry): as above
Description: as §1
(§2) Rho Kinase Inhibitory Action (Inhibition of p160ROCK and ROCKII)
(§3) COS cells were seeded in a 3.5 cm dish and incubated overnight. […] After incubation for 20 hours, the cells were washed once with ice-cooled PBS, and the cells were lysed on ice for 20 minutes using a lysis buffer (20 mM Tris-HCl (pH=7.5), 1 mM EDTA, 1 mM EGTA, 5 mM MgCl2, 25 mM NaF, 10 mM β glycerophosphate, 5 mM sodium pyrophorphate, 0.2 mM phenylmethylsulfonyl fluoride, 2 mM dithiothreitol, 0.2 mM sodium vanadate, 0.05% Triton X-100, 0.1 μM calyculin A). The lysate was centrifuged at 10,000×g for 10 minutes and the supernatant was recovered. […] Then, protein G-Sepharose was added and the mixture was shaken for 2 more hours. […]

ROCKII = biological target: T3, ROCKII (Mus musculus, UniProt P70336); test: Inhibition of ROCKII (myc-tagged, expressed in COS cells); type: biochemical; details: enzyme expressed in COS cells; read-out: IC50 (μM) ROCK-II
T3 construct: made in house; host or cells: COS cells (transient transfection, immunoprecipitated with 9E10 anti-myc antibody on protein G-Sepharose)
T3 sequence (P70336 whole entry): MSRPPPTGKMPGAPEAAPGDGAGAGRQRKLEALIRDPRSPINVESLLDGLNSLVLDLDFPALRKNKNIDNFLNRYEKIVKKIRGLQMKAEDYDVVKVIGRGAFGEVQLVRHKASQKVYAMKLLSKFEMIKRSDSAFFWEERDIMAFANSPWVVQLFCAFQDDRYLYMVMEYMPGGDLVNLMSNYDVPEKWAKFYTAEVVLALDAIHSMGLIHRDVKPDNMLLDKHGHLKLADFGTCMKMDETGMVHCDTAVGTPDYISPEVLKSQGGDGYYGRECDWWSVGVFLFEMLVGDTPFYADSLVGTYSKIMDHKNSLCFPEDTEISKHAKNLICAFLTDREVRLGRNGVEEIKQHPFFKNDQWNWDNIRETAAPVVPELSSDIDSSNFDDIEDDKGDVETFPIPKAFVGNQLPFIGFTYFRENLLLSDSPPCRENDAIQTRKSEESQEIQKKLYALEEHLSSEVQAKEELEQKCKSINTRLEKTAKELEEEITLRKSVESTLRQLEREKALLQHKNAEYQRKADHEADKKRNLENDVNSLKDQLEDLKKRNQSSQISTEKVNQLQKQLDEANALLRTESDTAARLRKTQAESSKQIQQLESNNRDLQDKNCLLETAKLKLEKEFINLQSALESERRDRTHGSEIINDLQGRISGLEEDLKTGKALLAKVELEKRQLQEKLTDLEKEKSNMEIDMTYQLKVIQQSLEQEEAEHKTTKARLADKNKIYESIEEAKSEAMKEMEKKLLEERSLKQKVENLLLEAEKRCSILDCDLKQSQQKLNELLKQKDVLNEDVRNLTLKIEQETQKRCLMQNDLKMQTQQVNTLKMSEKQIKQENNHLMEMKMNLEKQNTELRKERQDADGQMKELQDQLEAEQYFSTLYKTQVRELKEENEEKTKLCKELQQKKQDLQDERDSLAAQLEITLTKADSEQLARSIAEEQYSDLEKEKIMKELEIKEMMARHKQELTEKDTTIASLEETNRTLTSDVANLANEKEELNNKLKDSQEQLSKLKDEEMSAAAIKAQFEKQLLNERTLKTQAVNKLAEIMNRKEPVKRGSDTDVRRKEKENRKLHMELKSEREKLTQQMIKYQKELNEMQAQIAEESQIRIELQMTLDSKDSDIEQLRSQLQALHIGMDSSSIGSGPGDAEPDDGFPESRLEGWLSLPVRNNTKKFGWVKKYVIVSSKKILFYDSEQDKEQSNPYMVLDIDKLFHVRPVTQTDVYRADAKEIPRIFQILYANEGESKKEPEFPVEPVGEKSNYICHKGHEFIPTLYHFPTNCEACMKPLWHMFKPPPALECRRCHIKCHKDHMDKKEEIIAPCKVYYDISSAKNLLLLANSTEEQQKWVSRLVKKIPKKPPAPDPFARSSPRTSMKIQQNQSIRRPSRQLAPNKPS
Description: as §1, §2, §3

[2] = test system: CEM cells (human T cell type established cell); test: Inhibition of VLA integrin activation (phorbol ester-induced adhesion of CEM cells to fibronectin); type: cell-based; details: CCRF-CEM, PMA-induced adhesion, read-out: Adhesion induction inhibition (%)
Description: Inhibition of VLA (Very Late Antigen) Integrin Activation
As the index of the activation by VLA integrin, phorbol ester-induced adhesion of CEM cells (human T cell type established cell) to fibronectin, which is a ligand of VIA integrin, was measured. The inhibitory action on the induced adhesion by the test compound was determined by the following method.
CEM cells were washed with RPMI1640 medium containing 0.5% bovine serum albumin (BSA), 10 mM HEPES, 2 mM L-glutamin, 1 mM sodium pyruvate, 60 μg/ml kanamycin sulfate and 1.5 mg/ml sodium hydrogencarbonate (hereinafter this medium is referred to as culture solution) and suspended in this medium for use in the following experiment. To each well of a 96 well plate coated with human fibronectin were added CEM cells (5×10^4) and the test compound dissolved in the culture solution (final concentration 1-100 μM) to the amount of 100 μl, and the plate was stood at 37° C. for 1 hour. Then, PMA (phorbol 12-myristate 13-acetate, TPA; final concentration 10 ng/ml) and the test compound were added to the amount of 200 μl, and the plate was stood at 37° C. for 30 minutes. Each well was washed twice with the culture solution (200 μL) at 37° C., and the LDH (lactate dehydrogenase) activity of the cells adhered to the plate was determined, whereby the amount of the adhered cell was measured. Based on the results obtained by the above-mentioned method, the inhibitory action of the test compound on the induced adhesion was calculated by the following formula The results are shown in Table 6. Inhibition (%) of adhesion induction=(a−b)/(a−c)×100 • a=number of cells adhered with the addition of PMA • b=number of cells adhered with the addition of test compound and PMA • c=number of cells adhered without stimulation

mouse femoral bone = test: Inhibition of bone resorption (in vitro), mouse femoral bone; details: 144 h, 6 days incubation of ICR mouse femoral bone
Description: Inhibition of Bone Resorption (in vitro)
The determination of the in vitro inhibition of bone resorption using mouse femoral bone followed the method below.
The femoral bone of 3-6 week old male ICR mice was aseptically removed, and bone marrow cavity was washed with F12 medium, containing 10% heat inactivated fetal bovine serum, penicillin G calcium (100 units/ml), kanamycin sulfate (60 μg) and 0.15% sodium hydrogencarbonate (hereinafter the medium is to be referred to as culture solution). After washing the bone marrow cavity and then removing the soft tissue adhered to the bone, the bone was subjected to incubation. The test compound was once dissolved in dimethyl sulfoxide (DMSO) to give a 10 mg/ml solution, which was diluted 1000-fold with the culture solution to give a 10 μg/ml solution. The test compounds were respectively added to the concentration shown in Table 7 and, using this culture solution (1.2 ml), the ICR mouse femoral bone was incubated in a 24 well plate for 6 days under the conditions of 5% CO2 gas, 95% air. After the completion of the incubation, the culture supernatant was recovered, and the amount of calcium suspending in the culture supernatant was quantitatively determined by the chelate method using o-cresolphthalein. The bone resorption inhibitory action of the test compound was calculated by the following formula using the incubation of the femoral bone without addition of the test compound as a control. [formula] This experiment was done with 4 cases in each group. As the control, the same amount of DMSO alone as in the case with the addition of the test compound was used.

ddY mice = test: Acute toxicity in ddY mice; type: in vivo; details: intraperitoneal administration at 30 mg/kg, monitored for 5 days
Source text: The compound 109.2HCl and compound 143.2HCl.H2O were respectively administered intraperitoneally to ddY mice and the mice were monitored for 5 days.

[3] = test system: Bovine Aorta Thoracia Rho Kinase; test: Rho kinase inhibitory action (inhibition of bovine aorta thoracia Rho kinase); type: biochemical; details: test compound 10 μM
Description: Rho Kinase Inhibitory Action (Inhibition of Bovine Aorta Thoracia Rho Kinase)
The Rho kinase was prepared from bovine aorta of thorax by partial purification as in the following. The artery was minced and homogenized with a 9-fold amount of 50 mM Tris-hydroxymethylaminomethane (Tris) (pH=7.4), 1 mM dithiothreitol, 1 mM EGTA, 1 mM EDTA, 100 μM p-amidinophenylmethylsulfonyl fluoride, 5 μM E-64, 5 μM leupeptine and 5 μM pepstatin A. The homogenate was centrifuged (10,000×g, 30 minutes) to give supernatant. The supernatant was adsorbed onto a hydroxyapatite column. The column was washed with 0.2M phosphate buffer (pH=6.8). The standard product of Rho kinase was eluted with 0.4M phosphate buffer (pH=6.8). The Rho kinase was assayed as follows.
A reaction mixture (total amount 50 μl) containing 50 mM Tris, 1 mM EDTA, 5 mM MgCl2, 50 μg/ml histone, 10 μM GTPγS, 100 μg/ml Rho, 2 μM [^32P]ATP, the Rho kinase (3 μl) prepared in the above and the test compound was reacted at 30° C. for 5 minutes. The reaction was terminated by the addition of 25% trichloroacetic acid (TCA) solution (1 ml) and the mixture was stood at 4° C. for 30 minutes. Then, the mixture was filtered through a membrane filter (HAWP type, Millipore), and the radioactivity of the filter was counted on a liquid scintillation counter. The inhibitory action of the test compound was calculated from the following formula based on the comparison of the radioactivity with the sample without the test compound (control).

[4] = test system: thoractic aorta ring contracted with phenylephrine; test: Vasodilating action on phenylephrine-contracted thoracic aorta rings; details: Oryctolagus cuniculus; rabbit aortic ring, phenylephrine 10^−6 M contraction; concentration for 50% relaxation; read-out: Vasorelaxing action
Description: Male rabbits (body weight 1.9-3.0 kg) were anesthetized with pentobarbital sodium and exsanguinated, whereafter thoractic aorta was removed. An about 2 mm width aortic ring samples were prepared and hung in a Magnus bath (40 ml) filled with Krebs-Henseleit solution (37° C., NaCl 117 mM; KCl 4.7 mM; CaCl2 2.5 mM; MgSO4 1.2 mM; NaHCO3 24.8 mM; KH2PO4 1.2 mM; glucose 11.0 mM) at a load of 2 g. The Magnus bath was constantly bubbled with a mixed gas (95% O2+5% CO2 gas). The tension of the preparation was measured with an isomeric transducer (TB-611T, Nippon Koden). The preparation was contracted with phenylephrine (10^−6 M) and, after the contraction was stabilized, the test compound was added accumulatively and relaxing action was observed.

[5] = test system: trachea specimen contracted with acetylcholine; test: Effect on contraction by acetylcholine of trachea specimen removed from guinea pig; details: Cavia porcellus, acetylcholine 10^−6 M contraction, 50% relaxation vs papaverine 10^−4 M maximum, read-out: Trachea relaxing action
Description: Male Hartley guinea pigs (body weight 260-390 g) were anesthetized by the peritoneal administration of pentobarbital sodium (100 mg/kg) and exsanguinated, whereafter trachea was removed. The anterior cartilage of the trachea was opened and the band was cut in a 3 mm width strip to give a specimen. The specimen was hung in a Magnus bath (40 ml) filled with Krebs-Henseleit solution (NaCl 117 mM; KCl 4.7 mM; CaCl2 2.5 mM; MgSO4 1.2 mM; NaHCO3 24.8 mM; KH2PO4 1.2 mM; glucose 11.0 mM) at a load of 1 g. The Magnus bath was constantly bubbled with a mixed gas (95% O2+5% CO2 gas). The tension of the strip was measured with an isomeric transducer (TB-611T, Nippon Koden) and depicted on a recorder (Ti-102, Tokai Irika).

[6] = test system: hind limb skin blood flow; test: Peripheral blood flow increasing action in STZ-induced diabetic rats; type: in vivo, rat; details: intravenous
Description: Peripheral Blood Flow Increasing Action
Streptozotocin (STZ, 65 mg/kg) was intravenously injected to male SD rats (body weight 200-300 g) to prepare diabetic rats. One month later, STZ-induced diabetic rats were anesthetized with pentobarbital sodium and the blood flow in the hind limb skin was measured with laser blood flowmeter (ALF21R, Advance). The test compound was intravenously administered via catheter dwelled in the carotid arteries, and hind limb skin blood flow increasing action was observed. The blood flow increasing action of the test compound was expressed by increase percentage from the blood flow before administration.

[7] = test system: normal human umberical vascular endothelial cells; test: Inhibition of angiogenesis (lumen formation in vascular endothelial cells); type: cell-based; details: 18 hours, compared with the control, number rises with inhibition of lumen formation
Description: Inhibition of Angiogenesis
The inhibition of angiogenesis was evaluated by using the inhibition of lumen formation in vascular endothelial cell as an index. To be specific, normal human umberical vascular endothelial cells (KURABO […] LTD.) were suspended in E-GMUV medium at 5.5×10^4 cells/ml and 400 μl therefrom was added on matrigel plate (EHS sarcoma-derived reconstructed basement membrane, Collaborative Biomedical Products). Then, the test compound (1 mM solution, 4 μl) was added and the cells were incubated at 37° C. under 5% CO2 gas for 18 hours. After the completion of the incubation, the number of lumen per predetermined area was counted under a microscope. Inasmuch as the number of lumen increases by the inhibition of lumen formation, the test compound was evaluated by comparison of the number of lumen with the control.

[8] = test system: smooth muscle cell (SMC) from rat aorta; test: Inhibition of growth of vascular smooth muscle cell; type: cell-based; details: 48 hours, MTT
Description: Inhibition of Growth of Vascular Smooth Muscle Cell
The separation from the artery of rat and culture of smooth muscle cell (SMC) followed the explant method of Ross (Ross, R. and Glomset, J. A., N. Engl. J. Med., 295, 369-420, 1976). Male wistar rats (10 week old) was slaughtered by cutting the carotid arteries and aorta of thorax was removed. After removal of fat tissues around the tunica externa and peeling of tunica intima, the artery was minced and incubated in 10% fetal bovine serum (FBS)-containing DMEM medium at 37° C. under 5% CO2 gas. Seven days later, the out-grown cells were separated by trypsin treatment, washed with phosphate-buffered saline (PBS) and incubated in 10% FBS-containing DMEM medium in a 80 cm^2 culture flask. The cells of subculture 2 were suspended in 10% FBS-containing DMEM medium at 5×10^4 cells/ml and 100 μl thereof per well was added to 96 well collagen-coated plate, which was incubated at 37° C. under 5% CO2 gas for one day. The test compound was appropriately diluted with dimethyl sulfoxide (DMSO) and added to the 96 well plate. The concentration of DMSO in the medium was adjusted to 1%. After 48 hours, 10 μl of MTT solution (5 mg/ml) was added and, 4 hours later, 10% sodium dodecyl sulfate-0.01 N hydrochloric acid (50 μl) was added. The absorbance at 570 nm was measured the following day by an immunoreader. The SMC growth inhibitory action of the test compound was shown by inhibition percentage calculated by the following formula The results are shown in Table 10.

## N=C(N)NC[C@H]1CC[C@H](C(=O)Nc2ccnc3[nH]ncc23)CC1 [Compound 143.2HCl.H2O, trans-N-(1H-pyrazolo[3,4-b]pyridin-4-yl)-4-guanidinomethylcyclohexanecarboxamide]
[1]
  IC50: 1600 nM
p160ROCK
  IC50: 0.88 µM
ROCKII
  IC50: 0.47 µM
[2]; concentration 100 μM
  inhibition at 100 µM: 77%
Mouse femoral bone
  inhibition at 100 µM: 39.4%
ddY mice
  Acute toxicity (death): did not cause death

## C[C@@H](N)c1ccc(C(=O)Nc2ccnc3[nH]ccc23)cc1 [Compound 165.2HCl.3/2H2O, (R)-(+)-N-(1H-pyrrolo[2,3-b]pyridin-4-yl)-4-(1-aminoethyl)benzamide]
[3]
  Inhibition (%): 100%
[4]
  IC50: 51 nM
[5]
  IC50: 66 nM
[6]; 0.03 μg
  Increase in skin blood flow ± standard error (%): 135.8 ± 0.0%
[6]; 0.1 μg
  Increase in skin blood flow ± standard error (%): 144.7 ± 0.0%
[2]; concentration 10 μM
  inhibition at 10 µM: 40%
[7]
  Number of lumen (10 μM): 222%
[8]
  IC50: 38000 nM
